The source of these data is patent US20260055079A1, “PHTHALAZINONE COMPOUNDS AS PARP7 INHIBITORS” (AZKARRA THERAPEUTICS, INC., priority 2022, published 2026).

Read-outs that look alike come from different tables or passages of the source. Bounds are passed on as bounds.

The target of test [1] is His-GST-PARP7 (Homo sapiens (Human), UniProt Q7Z3E1). Kind of test: PARP7 biochemical assay. The note with it: read-out: PARP7 IC50.
The target of test [2] is PARP2 (Homo sapiens (Human), UniProt Q9UGN5). Kind of test: PARP2 biochemical assay.
In test [3] the test system is NCI-H1373 (human lung adenocarcinoma) cells. Kind of test: Cell proliferation assay (CellTiter-Glo), NCI-H1373. Type of test: cell-based. The note with it: Homo sapiens, NCI-H1373, 144 h; 6 days, CellTiter-Glo; read-out: NCI-H1373 GI50.

Sequence of His-GST-PARP7 (Q7Z3E1 whole entry): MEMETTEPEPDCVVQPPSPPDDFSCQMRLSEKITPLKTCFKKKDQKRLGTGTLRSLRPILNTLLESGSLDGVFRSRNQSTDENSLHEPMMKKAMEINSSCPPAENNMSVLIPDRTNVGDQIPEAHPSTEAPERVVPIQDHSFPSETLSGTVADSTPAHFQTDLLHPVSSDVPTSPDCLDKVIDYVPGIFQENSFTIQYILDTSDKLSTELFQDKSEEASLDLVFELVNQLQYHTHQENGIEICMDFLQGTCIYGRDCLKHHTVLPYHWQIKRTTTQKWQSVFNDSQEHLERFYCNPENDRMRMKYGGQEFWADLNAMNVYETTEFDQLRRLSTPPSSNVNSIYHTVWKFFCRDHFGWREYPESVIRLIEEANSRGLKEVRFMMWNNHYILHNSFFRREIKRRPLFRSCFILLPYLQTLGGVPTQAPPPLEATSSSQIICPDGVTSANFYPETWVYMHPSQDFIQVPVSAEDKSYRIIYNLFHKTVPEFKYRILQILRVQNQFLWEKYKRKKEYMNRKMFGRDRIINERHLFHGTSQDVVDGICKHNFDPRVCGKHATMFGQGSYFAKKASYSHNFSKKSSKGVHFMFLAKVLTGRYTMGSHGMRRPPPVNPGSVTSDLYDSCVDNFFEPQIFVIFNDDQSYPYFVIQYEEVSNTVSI
Sequence of PARP2 (Q9UGN5 whole entry): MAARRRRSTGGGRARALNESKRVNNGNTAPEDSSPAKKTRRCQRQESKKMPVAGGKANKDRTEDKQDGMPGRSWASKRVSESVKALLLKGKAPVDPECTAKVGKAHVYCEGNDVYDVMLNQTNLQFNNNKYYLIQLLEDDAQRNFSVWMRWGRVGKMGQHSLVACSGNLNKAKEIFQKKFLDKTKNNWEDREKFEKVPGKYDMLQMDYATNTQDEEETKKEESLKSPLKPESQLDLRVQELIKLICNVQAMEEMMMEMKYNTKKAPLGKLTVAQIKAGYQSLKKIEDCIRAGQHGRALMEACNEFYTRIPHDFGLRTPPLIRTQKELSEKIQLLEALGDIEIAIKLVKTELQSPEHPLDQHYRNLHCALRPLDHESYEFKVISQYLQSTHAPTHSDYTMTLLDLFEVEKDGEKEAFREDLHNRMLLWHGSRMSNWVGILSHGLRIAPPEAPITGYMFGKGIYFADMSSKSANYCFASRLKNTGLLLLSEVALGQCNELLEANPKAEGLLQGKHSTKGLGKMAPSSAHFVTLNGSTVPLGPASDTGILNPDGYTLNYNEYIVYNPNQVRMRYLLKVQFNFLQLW

What is called IC50 is the midpoint of a concentration-inhibition curve. Take “4-(4-Fluoro-3-(4-(5-(trifluoromethyl)pyrimidin-2-yl)piperazine-1-carbonyl)benzyl)-6-isobutylphthalazin-1(2H)-one [Example 44]”: the IC50 was < 0.05 µM in test [1] and 0.05 to 0.1 µM in test [2] (read-out: PARP2 IC50).

With `O=C(c1cc(Cc2n[nH]c(=O)c3ccc(C4CC4)cc23)ccc1F)N1CCN(c2ncc(C(F)(F)F)cn2)CC1` [Example 45, 6-Cyclopropyl-4-(4-fluoro-3-(4-(5-(trifluoromethyl)pyrimidin-2-yl)piperazine-1-carbonyl)benzyl)phthalazin-1(2H)-one], the figures for the IC50 in test [1] and in test [2] (read-out: PARP2 IC50) were < 0.05 µM and 0.1 to 0.5 µM, respectively.

For `CC#Cc1ccc2c(=O)[nH]nc(Cc3ccc(F)c(C(=O)N4CCN(c5ccc(C#N)cn5)C(C)C4)c3)c2c1` (centres unmarked) [Example 72, 6-(4-(2-Fluoro-5-((4-oxo-7-(prop-1-ynyl)-3,4-dihydrophthalazin-1-yl)methyl)benzoyl)-2-methylpiperazin-1-yl)nicotinonitrile], the IC50 is < 0.05 µM in test [1] and 0.1 to 0.5 µM in test [2] (read-out: PARP2 IC50).

Broadly, the GI50 is the concentration that inhibits growth by half. Consider `N#Cc1ccc(N2CCN(C(=O)c3cc(Cc4n[nH]c(=O)c5ccc(NCC6CC6)cc45)ccc3F)CC2)nc1` [Example 20, 6-(4-(5-((7-(cyclopropylmethylamino)-4-oxo-3,4-dihydrophthalazin-1-yl)methyl)-2-fluorobenzoyl)piperazin-1-yl)nicotinonitrile], for which the IC50 in test [1] and in test [2] (read-out: PARP2 IC50) was < 0.05 µM throughout. Besides, in test [3], the GI50 lay within 0.1 to 1 µM.

For `N#Cc1ccc(N2CCN(C(=O)c3cc(Cc4n[nH]c(=O)c5ccc(N6CC(F)(F)C6)cc45)ccc3F)CC2)nc1` [Example 18, 6-(4-(5-((7-(3,3-Difluoroazetidin-1-yl)-4-oxo-3,4-dihydrophthalazin-1-yl)methyl)-2-fluorobenzoyl)piperazin-1-yl)nicotinonitrile], the IC50 is < 0.05 µM in test [1] and 0.1 to 0.5 µM in test [2] (read-out: PARP2 IC50).

Consider `CC#Cc1ccc2c(=O)[nH]nc(C(C)N(C)CCC(=O)N3CCN(c4ncc(C(F)(F)F)cn4)CC3)c2c1` (centres unmarked) [Example 193, 4-(1-(methyl(3-oxo-3-(4-(5-(trifluoromethyl)pyrimidin-2-yl)piperazin-1-yl)propyl)amino)ethyl)-6-(prop-1-yn-1-yl)phthalazin-1(2H)-one], for which the IC50 in test [1] was < 0.05 µM; in test [2] (read-out: PARP2 IC50) it was > 2 µM. Further, the GI50 in test [3] lay within 0.1 to 1 µM.

In the case of `N#Cc1ccc(N2CCN(C(=O)c3cc(Cc4n[nH]c(=O)c5ccc(C#CC(F)(F)F)cc45)ccc3F)CC2)nc1` [Example 24, 6-(4-(2-Fluoro-5-((4-oxo-7-(3,3,3-trifluoroprop-1-ynyl)-3,4-dihydrophthalazin-1-yl)methyl)benzoyl)piperazin-1-yl)nicotinonitrile], the IC50 in test [1] was < 0.05 µM; in test [2] (read-out: PARP2 IC50), 0.1 to 0.5 µM.

For the molecule `N#Cc1ccc(N2CCN(C(=O)c3cc(Cc4n[nH]c(=O)c5ccc(N6CC7(CCC7)C6)cc45)ccc3F)CC2)nc1` [Example 31, 6-(4-(2-Fluoro-5-((4-oxo-7-(2-azaspiro[3.3]heptan-2-yl)-3,4-dihydrophthalazin-1-yl)methyl)benzoyl)piperazin-1-yl)nicotinonitrile], the values for the IC50 in test [1] and in test [2] (read-out: PARP2 IC50) were < 0.05 µM and > 2 µM, respectively. The GI50 in test [3] lay within 0.1 to 1 µM.

As for `O=C(c1cc(Cc2n[nH]c(=O)c3ccc(C#CC4CC4)cc23)ccc1F)N1CCN(c2ncc(C(F)(F)F)cn2)CC1` [Example 47, 6-(Cyclopropylethynyl)-4-(4-fluoro-3-(4-(5-(trifluoromethyl)pyrimidin-2-yl)piperazine-1-carbonyl)benzyl)phthalazin-1(2H)-one], the IC50 in test [1] lay within 0.1 to 0.5 µM; in test [2] (read-out: PARP2 IC50) it was 0.5 to 2 µM.

On to `CC#Cc1cc(Cl)c2c(=O)[nH]nc(Cc3ccc(F)c(C(=O)N4CCN(c5ccc(C#N)cn5)CC4)c3)c2c1` [Example 85, 6-(4-(5-((5-chloro-4-oxo-7-(prop-1-yn-1-yl)-3,4-dihydrophthalazin-1-yl)methyl)-2-fluorobenzoyl)piperazin-1-yl)nicotinonitrile], for which the IC50 in test [1] is 0.1 to 0.5 µM; in test [2] (read-out: PARP2 IC50) it was 0.05 to 0.1 µM. The 50% growth inhibitory concentration (GI50) in test [3] was < 0.1 µM.

For `O=C(c1cc(Cc2n[nH]c(=O)c3ccc(C#CC(F)(F)F)cc23)ccc1F)N1CCN(c2ncc(C(F)(F)F)cn2)CC1` [Example 49, 4-(4-Fluoro-3-(4-(5-(trifluoromethyl)pyrimidin-2-yl)piperazine-1-carbonyl)benzyl)-6-(3,3,3-trifluoroprop-1-yn-1-yl)phthalazin-1(2H)-one], the IC50 in test [1] and in test [2] (read-out: PARP2 IC50) was 0.1 to 0.5 µM in each case.

Take `N#Cc1ccc(N2CCN(C(=O)c3cc(Cc4n[nH]c(=O)c5ccc(C#CC6CC6)cc45)ccc3F)CC2)nc1` [Example 37, 6-(4-(5-((7-(Cyclopropylethynyl)-4-oxo-3,4-dihydrophthalazin-1-yl)methyl)-2-fluorobenzoyl)piperazin-1-yl)nicotinonitrile]: the IC50 lay in the range of 0.1 to 0.5 µM in test [1] and 0.5 to 2 µM in test [2] (read-out: PARP2 IC50).

As for `CC(C)(C)Cc1ccc2c(=O)[nH]nc(Cc3ccc(F)c(C(=O)N4CCN(c5ccc(C#N)cn5)CC4)c3)c2c1` [Example 41, 6-(4-(2-Fluoro-5-((7-neopentyl-4-oxo-3,4-dihydrophthalazin-1-yl)methyl)benzoyl)piperazin-1-yl)nicotinonitrile], the IC50 in test [1] and in test [2] (read-out: PARP2 IC50) was 0.1 to 0.5 µM in each case.

Regarding “6-(4-(2-Fluoro-5-((4-oxo-7-(prop-2-yn-1-yloxy)-3,4-dihydrophthalazin-1-yl)methyl)benzoyl)piperazin-1-yl)nicotinonitrile [Example 26]”, the IC50 in test [1] was < 0.05 µM; in test [2] (read-out: PARP2 IC50), 0.1 to 0.5 µM.

Regarding `N#Cc1ccc(N2CCN(C(=O)c3cc(Cc4n[nH]c(=O)c5ccc(C6CC6)cc45)ccc3F)CC2)nc1` [Example 40, 6-(4-(5-((7-Cyclopropyl-4-oxo-3,4-dihydrophthalazin-1-yl)methyl)-2-fluorobenzoyl)piperazin-1-yl)nicotinonitrile], the IC50 was < 0.05 µM in test [1] and 0.1 to 0.5 µM in test [2] (read-out: PARP2 IC50).

In the case of `CC#Cc1ccc2c(=O)[nH]nc(Cc3ccc(F)c(C(=O)N4C5CCC4CN(c4ccc(C#N)cn4)C5)c3)c2c1` [Example 62, 6-(8-(2-Fluoro-5-((4-oxo-7-(prop-1-yn-1-yl)-3,4-dihydrophthalazin-1-yl)methyl)benzoyl)-3,8-diazabicyclo[3.2.1]octan-3-yl)nicotinonitrile], the IC50 in test [1] was < 0.05 µM; in test [2], 0.5 to 2 µM.

As to `N#Cc1ccc(N2CCN(C(=O)c3cc(Cc4n[nH]c(=O)c5ccc(OC(F)(F)F)cc45)ccc3F)CC2)nc1` [Example 30, 6-(4-(2-fluoro-5-((4-oxo-7-(trifluoromethoxy)-3,4-dihydrophthalazin-1-yl)methyl)benzoyl)piperazin-1-yl)nicotinonitrile], the IC50 was < 0.05 µM in test [1] and 0.1 to 0.5 µM in test [2] (read-out: PARP2 IC50). In addition, the GI50 in test [3] was 0.1 to 1 µM.

As for `CC#Cc1ccc2c(=O)[nH]nc(Cc3ccc(F)c(C(=O)N4CCN(c5ccc(C#N)cn5)CC4C)c3)c2c1` (centres unmarked) [Example 61, 6-(4-(2-Fluoro-5-((4-oxo-7-(prop-1-yn-1-yl)-3,4-dihydrophthalazin-1-yl)methyl)benzoyl)-3-methylpiperazin-1-yl)nicotinonitrile], the IC50 in test [1] and in test [2] (read-out: PARP2 IC50) was < 0.05 µM throughout.

As for `CC(F)(F)c1ccc2c(=O)[nH]nc(Cc3ccc(F)c(C(=O)N4CCN(c5ccc(C#N)cn5)CC4)c3)c2c1` [Example 36, 6-(4-(5-((7-(1,1-Difluoroethyl)-4-oxo-3,4-dihydrophthalazin-1-yl)methyl)-2-fluorobenzoyl)piperazin-1-yl)nicotinonitrile], the IC50 in test [1] is 0.05 to 0.1 µM; in test [2] (read-out: PARP2 IC50) it was < 0.05 µM. Further, in test [3], the GI50 was in the range of 0.1 to 1 µM.

Turning to `N#Cc1ccc(N2CCN(C(=O)c3cc(Cc4n[nH]c(=O)c5ccc(N6CC(C(F)(F)F)C6)cc45)ccc3F)CC2)nc1` [Example 34, 6-(4-(2-Fluoro-5-((4-oxo-7-(3-(trifluoromethyl)azetidin-1-yl)-3,4-dihydrophthalazin-1-yl)methyl)benzoyl)piperazin-1-yl)nicotinonitrile], the IC50 was < 0.05 µM in test [1] and 0.5 to 2 µM in test [2] (read-out: PARP2 IC50). Also, the GI50 in test [3] lay in the range of 0.1 to 1 µM.

With `CC#Cc1ccc2c(=O)[nH]nc(Cc3ccc(F)c(C(=O)N(C)CCN(CC)c4ccc(C#N)cn4)c3)c2c1` [Example 198, N-(2-((5-Cyanopyridin-2-yl)(ethyl)amino)ethyl)-2-fluoro-N-methyl-5-((4-oxo-7-(prop-1-yn-1-yl)-3,4-dihydrophthalazin-1-yl)methyl)benzamide], the IC50 was < 0.05 µM in test [1] and > 2 µM in test [2] (read-out: PARP2 IC50).

On to `CC#Cc1ccc2c(=O)[nH]nc(Cc3ccc(F)c(C(=O)NCCN(CC)c4ccc(C#N)cn4)c3)c2c1` [Example 197, N-(2-((5-cyanopyridin-2-yl)(ethyl)amino)ethyl)-2-fluoro-5-((4-oxo-7-(prop-1-yn-1-yl)-3,4-dihydrophthalazin-1-yl)methyl)benzamide], for which the IC50 in test [1] was < 0.05 µM; in test [2] (read-out: PARP2 IC50), > 2 µM.

For `CC#Cc1ccc2c(=O)[nH]nc(Cc3cc(F)c(F)c(C(=O)N4CCN(c5ccc(C#N)cn5)CC4)c3)c2c1` [Example 74, 6-(4-(2,3-Difluoro-5-((4-oxo-7-(prop-1-ynyl)-3,4-dihydrophthalazin-1-yl)methyl)benzoyl)piperazin-1-yl)nicotinonitrile], the IC50 in test [1] is < 0.05 µM; in test [2] (read-out: PARP2 IC50) it was 0.05 to 0.1 µM. In addition, in test [3], the GI50 lay within 0.1 to 1 µM.

Take `CN(C)CC#Cc1ccc2c(=O)[nH]nc(Cc3ccc(F)c(C(=O)N4CCN(c5ncc(C(F)(F)F)cn5)CC4)c3)c2c1` [Example 46, 6-(3-(Dimethylamino)prop-1-yn-1-yl)-4-(4-fluoro-3-(4-(5-(trifluoromethyl)pyrimidin-2-yl)piperazine-1-carbonyl)benzyl)phthalazin-1(2H)-one]: the IC50 in test [1] is < 0.05 µM; in test [2] (read-out: PARP2 IC50), 0.1 to 0.5 µM.
